From patent publication US12319694B2, “Heterocyclic nitrogen-containing purine derivatives, pharmaceutical preparations containing these derivatives and their use in neuroprotection” (UNIVERZITA PALACKEHO, priority 2019, dated 2025)
Values joined by “and” are separate entries in the source; they are usually repeats but may differ in a detail not shown here. Equal entries are not always repeated.

Legend:
[1] = tested on: SH-SY5Y human neuroblastoma cell line (differentiated phenotype); experiment: Viability test, salsolinol-induced model of Parkinson's disease in differentiated SH-SY5Y (Calcein AM); format: cell-based; conditions: 24 h
Description: (§1) The SH-SY5Y human neuroblastoma cell line obtained as kind gift from Walter d'Acunto (originally purchased from ATCC—American Type Culture Collection (Manassas, VA, USA) was cultivated in Dulbecco's modified Eagle's Medium and Ham's F12 Nutrient Mixture (DMEM:F-12, 1:1), supplemented with 10% fetal bovine serum (FBS) and 1% penicillin and streptomycin at 37° C. in a humidified atmosphere 5% CO2, 95% air in passage limit up to ATCC+15. The assay was performed in 96-well microplate with 7000 SH-SY5Y cells per well. Next day, SH-SY5Y underwent all-trans retinoic acid (ATRA)-differentiation for 48 h (ATRA 10 μM). After 48 h, old DMEM/F12 media was removed by fresh media containing tested compounds at 0.1, 1 and 10 μM concentrations for 24 h. The tested compounds were dissolved in DMSO were added into the medium. The maximum concentration of DMSO in media was kept below 0.1% (v/v). The cell viability was measured by Calcein AM (1 mg/ml ThermoFisher) viability assay. Solution of Calcein AM in PBS (0.5 uM) was pipetted to cells and incubated for 50 minutes. After that the fluorescence was measured at 488/517 nm (excitation/emission) using microplate reader Infinite M200 (TECAN). Calcein AM assay is based on the dye-intracellular-esterase cleavage of non-fluorescent dye (Calcein AM) by living cells to fluorescent dye (Calcein), while dyeing cells that lose such ability. The values in Table 4 show % of viability, relative to control of all tested compounds. The control (medium with DMSO, <0.1% (v/v)) was postulated as 100% viability (see the first line of the table).
Similarly, to the previous test the assay was performed in 96-well microplates with 7000 SH-SY5Y cells per well. Day after the seeding of cells, SH-SY5Y underwent all-trans retinoic acid (ATRA)-differentiation for 48 h (ATRA 10 μM). After 48 h, old DMEM/F12 media was removed by fresh media containing 500 μM dopaminergic neurotoxin Salsolinol (SAL) without or with tested compounds at 0.1, 1 and 10 μM concentrations. […] After 24 h the cell viability was measured by Calcein AM viability assay.

Nrf2 = experiment: Activation of Nrf2-dependent expression, EpRE-LUX reporter cell line; format: cell-based; conditions: 24 h; tested at 100, 10, 1 and 0.1 μM, concentration of the printed value not stated; mean ± SD (n = 3)
Description: The ability of compounds to activate Nrf2-dependent expression was determined by EpRE-LUX reporter cell line. In brief, compounds at 100, 10, 1 and 0.1 μM concentrations of the tested compounds were incubated for 24 h with the cells. After cells lysis (10 mM Tris, 2 mM DTT), a buffer containing 0.2 mM luciferin was added to start luminescent reaction. The increase in luminescence was measured with microplate reader Infinite M200 (TECAN). Compounds with Nrf2 value higher than 0 are strong Nrf2 activators and thus will be useful agents for the treatment of neurodegenerative diseases associated with oxidative stress.

[2] = Calcein AM viability test on ATRA-differentiated SH-SY5Y cells; format: cell-based, human; conditions: human, ATRA-differentiated SH-SY5Y neuroblastoma cells, DMSO control = 100%, read-out: % of viability, relative to control; for viability at 24 h, 0.1 µM: 0.1 μM compound; for viability at 24 h, 1 µM: 1 μM compound; for viability at 24 h, 10 µM: 10 μM compound
Description: as §1

[3] = tested on: SH-SY5Y human neuroblastoma cell line; experiment: Oxidative stress measurement (dihydroethidium, superoxide) in SH-SY5Y, salsolinol-induced model of PD; format: cell-based; conditions: 6 h; for activity at 1 µM: 1 μM compound with SAL 500 μM; for activity at 1 µM / activity at 10 µM: read-out: Oxidative stress (% of control); for reduction of oxidative stress induced by Salsolinol (in words): SAL 500 μM, compounds 1 and 10 μM
Description: The assay was performed in 96-well microplate with 7000 cells/well. Next day, SH-SY5Y underwent differentiation protocol for 48 h see above. Treatment procedure remained the same as in previous section (Cell treatment and viability/cytotoxicity assays). Additionally, oxidative stress (OS) inducers such as 6-hydroxydopamine (6-OHDA) and glutamate (Glu) alone were used as […]. Negative controls determined threshold of excessive OS. […] After 30 minutes, DHE was read at 500 nm/580 nm (excitation/emission). DHE is cell permeable dye which is selective toward superoxide radical detection.

[4] = Radical scavenging activity by ORAC assay; conditions: NAUC relative to trolox; mean ± SD (n = 3)
Description: The ability of compounds to scavenge free radicals in vitro was determined by Oxygen Radical Absorbance Capacity (ORAC) method. In brief, fluorescein (100 μL, […]) and 25 μL of tested compound solution were added into each working well in a 96-well microplate preincubated at 37° C. Thereafter, 25 μL of 250 mM 2,2′-azobis(2-amidino-propan)dihydrochloride (AAPH) was quickly added, microplate was shaken for 5 s and the fluorescence (Ex. 485 nm, Em. 510 nm) was read every 3 min over 90 min by using microplate reader Infinite 200 (TECAN, Switzerland). The NAUC value (Net Area Under Curve) was used to express antioxidant activity relative to trolox (hydrophilic equivalent of vitamin E postulated as a standard). Substances with an ORAC value greater than 0 actively trap free radicals.

[5] = 0.1 μM compound with 500 μM Salsolinol
[6] = 1 μM compound with 500 μM Salsolinol
[7] = 10 μM compound with 500 μM Salsolinol
[8] = Homo sapiens, SH-SY5Y, 10 μM compound with SAL 500 μM

| Structure (SMILES) | Neuroprotective effect (% of control) [1, 5] | Neuroprotective effect (% of control) [1, 6] | Neuroprotective effect (% of control) [1, 7] | Nrf2 (relative luminiscence) (Nrf2) | viability at 24 h, 0.1 µM [2] [%] | viability at 24 h, 1 µM [2] [%] | viability at 24 h, 10 µM [2] [%] | activity at 1 µM ([3]; Homo sapiens, SH-SY5Y) [%] | activity at 10 µM [3, 8] [%] | ORAC (compound/trolox) [4] [compound/trolox] | activity at 30 µM ([3]; Homo sapiens, SH-SY5Y, 6-OHDA 30 μM alone (negative control)) [%] | Oxidative stress (% of control) ([3]; Glu 160 mM alone (negative control)) | Oxidative stress (% of control) ([3]; 10 μM compound with SAL 500 μM) | reduction of oxidative stress induced by Salsolinol (in words) [3] | decrease in percentages of alive cells ([1]; 500 μM Salsolinol alone) [%] | Oxidative stress (% of control) ([3]; Salsolinol 500 μM alone, DMSO control = 100%) |
| --- | --- | --- | --- | --- | --- | --- | --- | --- | --- | --- | --- | --- | --- | --- | --- | --- |
| COc1cc2c(cc1OC)C(=O)C(CC1CCN(Cc3ccccc3)CC1)C2 (stereo not shown) [Donepezil, reference compound] | 2.76 % of control | 6.73 % of control | 14.25 % of control |  |  |  |  |  |  |  |  |  |  |  |  |  |
| Clc1cccc(Cl)c1Cn1cnc2c(N3CCCC3)nc(N3CCCC3)nc21 [Compound 74, 9-(2,6-Dichlorobenzyl)-2,6-di(pyrrolidine-1-yl)-9H-purine] | 8.57 % of control | 20.24 % of control | 22.35 % of control | 0.38 ± 0.08 | 111 | 138 | 152 | 126 | 179 |  |  |  |  |  |  |  |
| c1ccc(Cn2cnc3c(N4CCCC4)nc(N4CCCCC4)nc32)cc1 [Compound 77, 9-Benzyl-2-(piperidin-1-yl)-6-(pyrrolidin-1-yl)-9H-purine] | 4.64 % of control | 12.11 % of control | 13.8 % of control | 0.16 ± 0.04 | 107 | 118 | 117 | 118 | 127 | 0.028 ± 0.001 |  |  |  |  |  |  |
| NCCc1cc(O)c(O)cc1O [Compound 6-OHDA, 6-hydroxydopamine, reference compound] |  |  |  |  |  |  |  |  |  |  | 215 |  |  |  |  |  |
| N[C@@H](CCC(=O)O)C(=O)O [Glu, glutamate, reference compound] |  |  |  |  |  |  |  |  |  |  |  | 268.62 % of control |  |  |  |  |
| c1ccc(Cn2cnc3c(N4CCCCC4)nc(N4CCCC4)nc32)cc1 [Compound 78, 9-Benzyl-6-(piperidin-1-yl)-2-(pyrrolidin-1-yl)-9H-purine] | N/A (N/A = no protection) | 17.95 % of control | N/A (N/A = no protection) | 0.23 ± 0.03 | 106 | 120 | 134 | 136 | 238 | 0.071 ± 0.005 |  |  | OS level reaching threshold of negative controls |  |  |  |
| c1ccc(Cn2cnc3c(N4CCOCC4)nc(N4CCOCC4)nc32)cc1 [Compound 4, 2,6-dimorpholino-9-benzylpurine] | 1.70 % of control | 8.11 % of control | 21.12 % of control | 0.19 ± 0.02 | 106 | 113 | 146 | 106 | 155 | 0.007 ± 0.002 |  |  |  |  |  |  |
| Oc1cccc(Cn2cnc3c(N4CCCC4)nc(N4CCCC4)nc32)c1 [Compound 26, 9-(3-Hydroxybenzyl)-2,6-di(pyrrolidin-1-yl)-9H-purine] | 4.90 % of control | 14.43 % of control | 20.71 % of control | 0.33 ± 0.06 | 108 | 120 | 142 | 107 | 142 | 0.126 ± 0.018 |  |  |  |  |  |  |
| CC(=O)N(O)CCCCCNC(=O)CCC(=O)N(O)CCCCCNC(=O)CCC(=O)N(O)CCCCCN [Deferoxamine, reference compound] | 1.43 % of control | 4.86 % of control | 10.52 % of control |  |  |  |  |  | 101 |  |  |  |  |  |  |  |
| c1ccc(Cn2cnc3c(N4CCSCC4)nc(N4CCSCC4)nc32)cc1 [Compound 5, 9-benzyl-2,6-dithiomorpholino-9H-purine] | 7.03 % of control |  | 19.89 % of control | 0.17 ± 0.06 | 106 | 126 | 129 | 121 | 135 | 0.016 ± 0.001 |  |  |  | highest potency toward the reduction of oxidative stress |  |  |
| C[C@@H]1NCCc2cc(O)c(O)cc21 [Salsolinol, reference compound] |  |  |  |  |  |  |  |  |  |  |  |  |  |  | 30.7 | 335.4 % of control and 335.36 % of control |
| Nc1nc(NCCc2ccc(O)cc2)nc2nc(-c3ccco3)nn12 [ZM241385, reference compound] | 1.95 % of control | 7.03 % of control | 9.31 % of control |  |  |  |  |  | 102 |  |  |  |  |  |  |  |
| Oc1ccc(Cn2cnc3c(N4CCCC4)nc(N4CCCC4)nc32)cc1 [Compound 30, 9-(4-hydroxybenzyl)-2,6-di(pyrrolidin-1-yl)-9H-purine] | 10.62 % of control |  | 26.41 % of control | 0.29 ± 0.11 | 99.5 | 111 | 123 | 95.9 | 97.4 | 0.422 ± 0.034 |  |  |  | highest potency toward the reduction of oxidative stress |  |  |
